Experimental findings from patent US9101569B2, “Methods for the treatment of insulin resistance” (UNIVERSITE DE GENEVE, priority 2010, dated 2015) are described below.

Molecules are shown by their SMILES.

Test [1] deals with HFD-induced obese rats. The experiment in a line: High-fat diet-induced obesity rat model, i.c.v. OT infusion: body weight gain and food intake. Particulars: 14 days, compared with saline. It is filed as in vivo. Here is the method:
The beneficial metabolic effects of OT administration were assayed in the following high-fat diet-induced obesity model in rats.
Male Wistar (300-325 g) rats were purchased from Charles River (L′Arbresle, France) and housed in individual cages under conditions of controlled temperature (22° C.) and illumination (light on: 07:00-19:00 h). They were allowed free access to water and a 45% high fat diet (HFD) (metabolized energy, 4.56 kcal/g) (Ssniff® EF R/M acc. D12451 (I) mod., ssniff Spezialdiaten GmbH, Soest, Germany) for seven weeks. Body weight, food intake and water intake were recorded daily (08:30-09:30 h). All procedures were approved by the Ethic Committee of our University and were in accordance with the Swiss guidelines for animal experimentation.
To study the role of OT on metabolic homeostasis, the above male Wistar rats were rendered obese by 7 weeks of HFD 45% and were intracerebroventricularly (i.c.v.) infused with either OT (1.6 nmol/d) or saline during the last 2 weeks of the experiment.
After three weeks of HFD feeding, rats were submitted to surgical procedures. They were anesthetized with intramuscular injection of ketamine-xylasine (Ketalar®-Rompun®, Parke-Davis and Bayer, Leverkusen, Switzerland) at 40 and 9 mg/kg, respectively, and implanted with a cannula in the right lateral cerebral ventricle fixed on the skull with dental cement, as previously described (Rohner-Jeanrenaud et al., 1989, Endocrinology 124, 733-9). After one week of recovery, the drinking response to i.c.v. injection of Angiotensin II (5 ng/μl) (Novabiochem, Laüfelfingen, Switzerland) was measured to confirm the correct placement of the cannula. At the end of the fifth week of high fat diet feeding, osmotic minipumps (Alzet®, model 2001, Alza Corporation, Cupertino, Calif.) delivering oxytocin (NeoMPS®, Strasbourg, France) or its vehicle (NaCl 0.9%) were subcutaneously implanted and connected to the i.c.v. cannula via a polyethylene catheter, as previously described (Rohner-Jeanrenaud et al., 1989, above). OT was delivered at a dose of 1.6 nmol/day/rat or 16 nmol/day/rat during 14 days. A group of vehicle-infused rats was pair-fed to the amount of food consumed by OT-infused animals in order to assess the effects of OT independently from changes in food intake. The pair-feeding regimen consisted in giving one-third of the daily food amount in the morning and the remaining two-thirds just before onset of darkness. Rats were sacrificed using isoflurane anesthesia (Halocarbon Laboratories, River Edge, N.J.) and rapid decapitation between 09:00 and 13:00 h. Blood samples were collected into EDTA-coated tubes, centrifuged and plasma stored at −20° C. Tissues were rapidly removed, freeze-clamped, and stored at −80° C.

Test [2] concerns HFD-induced obese rats. In words: HOMA-IR and euglycemic-hyperinsulinemic clamps after subcutaneous OT infusion. The class given is in vivo, rat. Particulars: s.c. 50 nmol/day, 14 days. How it is done:
Global and tissue-specific glucose utilization rates were measured by performing euglycemic-hyperinsulinemic clamps associated with the labeled 2-deoxyglucose technique as previously described (Vettor et al., 1994, Diabetologia, 37, 1202-1208). HFD-induced obese rats were overnight fasted and intraperitoneally anesthetized with Nembutal (75 mg/kg sodium pentobarbital; Abbott Laboratories, Chicago, Ill.). Total glucose utilization was measured during euglycemic-hyperinsulinemic clamps, as previously described (Vettor et al., 1994, above). At the end of the clamp, the in vivo insulin-stimulated glucose utilization index of individual tissues was determined by injecting a single bolus of labeled 2-deoxy-D-[1-3H]glucose (30 μCi; Amersham Biosciences UK, Little Chalfont, UK), as previously described (Vettor et al., 1994, above). […]
The beneficial effects of OT administration were assessed in the same rat model of high-fat diet induced obesity as in Example 1. […]
Insulinemia and glycemia were measured after an overnight fast before the euglycemic hyperinsulinemic clamps) and were used to calculate the “homeostasis model assessment of insulin resistance” (HOMA-IR). HOMA-IR was calculated as follows: (fasting serum insulin in mU/l)×(fasting blood glucose in mM)/22.5.
The effect of peripheral OT administration on high fat diet-induced insulin resistance was determined as described in Example 1.

Test [3] relates to HFD-induced obese rats. The experiment in a line: High-fat diet-induced obesity rat model, subcutaneous infusion: body weight gain, food intake, body composition. The class given is in vivo. The settings on record: s.c. OT 50 nmol/day, 10 days, independent of food intake.

Consider `CC[C@H](C)[C@@H]1NC(=O)[C@H](Cc2ccc(O)cc2)NC(=O)[C@@H](N)CSSC[C@@H](C(=O)N2CCC[C@H]2C(=O)N[C@@H](CC(C)C)C(=O)NCC(N)=O)NC(=O)[C@H](CC(N)=O)NC(=O)[C@H](CCC(N)=O)NC1=O` [OT, Cys-Tyr-Ile-Gln-Asn-Cys-Pro-Leu-Gly (SEQ ID NO: 1)], for which, in the test with HFD-induced obese rats [1] (i.c.v. 1.6 nmol/d), the “cumulative body weight gain” value was “more than fifty percent decrease”, the cumulative food intake result is recorded as “without any effect” and the “food efficiency (ratio of body weight gain to cumulative food intake)” value is recorded as “marked decrease”. The cumulative food intake entry with HFD-induced obese rats [1] (i.c.v. 16 nmol/d) was “decreased”. For the same molecule, in the test with HFD-induced obese rats [1] (i.c.v. 16 nmol/d, not observed in pair-fed group), the body weight gain entry is recorded as “significantly lower”. In addition, the “glucose infusion rate (GIR)” value in the test on HFD-induced obese rats [2] is “significantly increased”. Besides, the HOMA-IR entry in the test on HFD-induced obese rats [2] (compared to saline, not observed in pair-fed group) is “lower”. In the test on HFD-induced obese rats [3], the “fat mass (QMR)” value is “significant decrease” and the “percent lean body mass (QMR)” value is recorded as “increase”.
